ChEMBL document CHEMBL1201862, “PubChem BioAssay data set” (2004)
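Test compounds were applied to cells in 96-well plates for 48 hours at 5 doses. Here, GI50 denotes the concentration required for 50% inhibition of growth.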 The source made the active and inactive calls. Cut-off read from the data, not from the text of the source: active = GI50 up to about 1.1 µM and inactive = higher.

Key:
Test in all cases: NCI-60 cell line screen, 48 h
KM-20L2 = test system: KM-20L2
LXFL 529 = test system: LXFL 529
DLD-1 = test system: DLD-1
DMS-273 = test system: DMS-273
RXF 631 = test system: RXF 631
XF498 = test system: XF498
DMS-114 = test system: DMS-114
M19-MEL = test system: M19-MEL
HOP-18 = test system: HOP-18

Row | SMILES | GI50 (KM-20L2) | GI50 (LXFL 529) | GI50 (DLD-1) | GI50 (DMS-273) | GI50 (RXF 631) | GI50 (XF498) | GI50 (DMS-114) | GI50 (M19-MEL) | GI50 (HOP-18)
1 | COc1ccc(-c2oc3c(OC)c(OC)c(OC)c(O)c3c(=O)c2OC)cc1O | 12.1 µM (inactive) | 0.0582 µM (active) | 0.432 µM (active) | < 0.01 µM (active) | 6.07 µM (inactive) | 0.279 µM (active) | 0.0277 µM (active) | 0.346 µM (active) | 
2 | COc1cc(/C=N/N=C(\N)NO)c(Cl)cc1O |  | > 100 µM (inactive) | > 10 µM (inactive) |  |  |  | 24.3 µM (inactive) | 26.6 µM (inactive) | 
3 | CC1(Br)C(=O)NC(=O)N(C2CC(N=[N+]=[N-])C(CO)O2)C1N=[N+]=[N-] (centres undefined) | > 100 µM (inactive) | > 100 µM (inactive) | > 100 µM (inactive) | > 100 µM (inactive) | > 100 µM (inactive) | > 100 µM (inactive) | > 100 µM (inactive) | > 100 µM (inactive) | 
4 | CC1=C(/C=C/C2=CC(=C\C(=O)O)/CC(C3=C(C)CCCC3(C)C)C2)C(C)(C)CCC1 (centres undefined) |  | 13.8 µM (inactive) | 12.2 µM (inactive) | 13.9 µM (inactive) | 11.1 µM (inactive) | 14.4 µM (inactive) | 10.9 µM (inactive) | 15.3 µM (inactive) | 14 µM (inactive)
5 | Oc1ccncc1-c1cnccc1O |  | > 100 µM (inactive) | > 100 µM (inactive) | > 100 µM (inactive) |  |  | > 100 µM (inactive) | > 100 µM (inactive) | > 100 µM (inactive)
6 | CC(=O)O[C@]12CCCCC1C1(O)C(O)CCCCC12 (some centres undefined) | > 100 µM (inactive) | > 100 µM (inactive) |  | > 100 µM (inactive) |  |  | > 100 µM (inactive) | > 100 µM (inactive) | > 100 µM (inactive)
7 | C=C(COC(C)=O)CC(OC(C)=O)c1ccccc1 (centres undefined) | > 100 µM (inactive) | > 100 µM (inactive) | > 100 µM (inactive) | > 100 µM (inactive) |  | > 100 µM (inactive) | > 100 µM (inactive) | > 100 µM (inactive) | 
8 | CCOC(=O)/C(=C/c1cc(OC)ccc1OC)CC(=O)O | > 100 µM (inactive) | > 100 µM (inactive) | > 31.6 µM (inactive) | > 100 µM (inactive) | > 100 µM (inactive) | > 39.3 µM (inactive) | > 100 µM (inactive) | > 100 µM (inactive) | > 100 µM (inactive)
9 | [O-][S+]1CSSC1 | 22.8 µM (inactive) | 13.5 µM (inactive) | 18.7 µM (inactive) | 10.9 µM (inactive) | 12.3 µM (inactive) | 15.7 µM (inactive) | 4.98 µM (inactive) | 2.05 µM (inactive) | 51.4 µM (inactive)
10 | O=C1NC2(CCCC2)C2CCCCC12O (centres undefined) |  | > 100 µM (inactive) | > 100 µM (inactive) | > 100 µM (inactive) | > 100 µM (inactive) | > 100 µM (inactive) | > 100 µM (inactive) | > 100 µM (inactive) | > 100 µM (inactive)
11 | Cc1cc(C)cc(NC(=O)CCC(=O)C2CCC/C2=N\NC(=O)C(=O)NN)c1 (centres undefined) | > 100 µM (inactive) | > 100 µM (inactive) | > 100 µM (inactive) | > 100 µM (inactive) | > 100 µM (inactive) | > 100 µM (inactive) | > 100 µM (inactive) | > 100 µM (inactive) | > 100 µM (inactive)
12 | N#CC1=C(O)NC(O)=C(C#N)C1c1ccc(C2C(C#N)=C(O)NC(O)=C2C#N)cc1 | > 100 µM (inactive) | > 100 µM (inactive) | 55.7 µM (inactive) | > 100 µM (inactive) | > 100 µM (inactive) | > 100 µM (inactive) | > 100 µM (inactive) | 67.8 µM (inactive) | > 100 µM (inactive)
13 | Cc1ccc(S(=O)(=O)N(/N=C(\N)Oc2ccc(Cl)cc2)C(=N)Oc2ccc(Cl)cc2)cc1 | > 100 µM (inactive) | > 100 µM (inactive) | > 100 µM (inactive) | > 100 µM (inactive) |  | > 100 µM (inactive) | > 100 µM (inactive) | > 100 µM (inactive) | > 100 µM (inactive)
14 | c1cc(N(CCn2cccn2)CCn2cccn2)cc(N(CCn2cccn2)CCn2cccn2)c1 | > 100 µM (inactive) | > 100 µM (inactive) | > 100 µM (inactive) | > 100 µM (inactive) | > 100 µM (inactive) | 77.6 µM (inactive) | > 100 µM (inactive) | > 100 µM (inactive) | 
15 | C#CCN(Cc1ccc2nc(-c3ccccc3)c(N)nc2c1)c1cc(OC)c(OC)c(OC)c1 | 41.3 µM (inactive) | 19.3 µM (inactive) |  | 22.1 µM (inactive) |  | 30 µM (inactive) | 14 µM (inactive) | 27 µM (inactive) | 
16 | Cc1ccc(S(=O)(=O)c2ccc(C)cc2[N+](=O)[O-])c([N+](=O)[O-])c1 | > 100 µM (inactive) | > 100 µM (inactive) |  | > 100 µM (inactive) |  | > 100 µM (inactive) | > 100 µM (inactive) | > 100 µM (inactive) | 
17 | O=C1CCC[C@]2(CCCC(=O)N2)C1 | > 100 µM (inactive) | > 100 µM (inactive) | > 100 µM (inactive) | > 100 µM (inactive) | > 100 µM (inactive) | > 100 µM (inactive) | > 100 µM (inactive) | > 100 µM (inactive) | > 100 µM (inactive)
18 | O=C1NC(=S)NC(=O)C1=Cc1ccc([N+](=O)[O-])o1 | 20.1 µM (inactive) | 16.5 µM (inactive) | 16 µM (inactive) | 18.9 µM (inactive) | 19.3 µM (inactive) | 31.6 µM (inactive) | 17.8 µM (inactive) | 19.6 µM (inactive) | 20.7 µM (inactive)
19 | O=[N+]([O-])c1ccc(/C=C/c2csnn2)cc1 |  | > 100 µM (inactive) | > 100 µM (inactive) |  |  |  | > 100 µM (inactive) | > 100 µM (inactive) | > 100 µM (inactive)
20 | CC1(C)CC(N2CCN(C3CC(C)(C)NC(C)(C)C3)CC2)CC(C)(C)N1 | > 100 µM (inactive) | > 100 µM (inactive) | > 100 µM (inactive) | > 100 µM (inactive) | > 100 µM (inactive) | > 100 µM (inactive) | > 100 µM (inactive) |  | > 100 µM (inactive)
21 | COc1cc2c3cc1Oc1c(OC)c(OC)cc4c1[C@@H](Cc1ccc(O)c(c1)Oc1ccc(cc1)C[C@@H]3N(C)CC2)N(C)CC4.c1ccccc1 | 5.32 µM (inactive) | 12.4 µM (inactive) | 19.1 µM (inactive) | 16.3 µM (inactive) |  | 11.4 µM (inactive) |  | 13.4 µM (inactive) | 
22 | CC1=C(N2CC2)C(=O)c2nc3n(c2C1=O)CCC3O (centres undefined) | 0.804 µM (active) | 0.679 µM (active) | 1.18 µM (inactive) | 0.469 µM (active) |  | 14.9 µM (inactive) | 1.03 µM (active) | 1.54 µM (inactive) | 36.6 µM (inactive)
